# Activity calls are given as the source filed them. No cut-off for these calls is given here.
# Legend:
# [1] = Inhibition of proteinase K at 0.05 mM pretreated for 1 hr by RT-PCR analysis
# HeLa [2] = assay: Inhibition of proteinase K in human HeLa cells assessed as beta-actin RNA level at 0.10 mM by RT-PCR analysis; assay type: cell-based
# [3] = Inhibition of proteinase K at 0.10 mM by RT-PCR analysis in presence of BSA
# [4] = Inhibition of proteinase K at 0.25 to 1 mM pretreated for 1 hr by RT-PCR analysis
# [5] = Inhibition of proteinase K at 0.75 mM pretreated for 1 hr by RT-PCR analysis
# [6] = Inhibition of proteinase K at 0.5 mM pretreated for 1 hr by RT-PCR analysis
# HeLa [7] = assay: Inhibition of proteinase K in human HeLa cells assessed as beta-actin RNA level at 0.5 mM by RT-PCR analysis; assay type: cell-based
# [8] = Inhibition of proteinase K at 0.25 mM by RT-PCR analysis in presence of BSA
inhibition [1],inhibition [3],inhibition [4],inhibition [5],inhibition [6],inhibition [8],Structure (SMILES),inhibition (HeLa [2]),inhibition (HeLa [7])
Active,Active,–,–,–,–,COC(=O)CCC(=O)N[C@@H](C)C(=O)N[C@H](C)C(=O)N[C@@H](C)C(=O)N1CCC[C@H]1C(=O)N[C@@H](CC(C)C)C(=O)CCl,Active,–
–,–,Active,Active,inactive,Active,COC(=O)CCC(=O)N[C@@H](C)C(=O)N[C@H](C)C(=O)N[C@@H](C)C(=O)N1CCC[C@H]1C(=O)N[C@H](C(=O)CCl)C(C)C,–,Active

# Reference: ChEMBL document CHEMBL1158542, “Synthesis and biological evaluation of modified pentapeptides as potent proteinase K inhibitors” (Bioorg Med Chem Lett, 2010)
